For one series, the system named is C57BL/6J-DIO mice. In words: intraperitoneal glucose tolerance test in DIO mice. It counts as in vivo, mouse. The settings on record: DIO mice; 20 nmol/kg.
Series [1] is described as follows: in vivo. The settings on record: CD-1, mouse, plasma, sc.
Method: First reader's note: The heading '1 mg/kg SC mouse' is printed over the plot above the table and gives dose, route and species for the pharmacokinetic parameters.
The subject of series [2] is GLP-1R+/+ and GLP-1R-/- mice. As to the kind of experiment: intraperitoneal glucose tolerance test in GLP-1R+/+ and GLP-1R-/- mice.
The next series in a line: clinical. Also on record: species or system human. The settings on record: in vivo. The method, then: Blood samples, pre- and post-dose, were collected during the in-house treatment periods for the assessment of PD and PK endpoints. […] In addition, fasting plasma glucose (FPG), insulin, C-peptide, GCG and HOMA-IR after ≥10 hours overnight fast and VAS assessments were done on Days 1, 2 and 3.
In participants with T2DM, blood samples were collected on Days 2, 3 and 4 for assessing PK profiles and for PD profiles, on Days 2 and 3. Fasting plasma glucose (FPG), insulin, C-peptide, GCG and HOMA-IR after ≥10 hours overnight fast on Days 1, 2, 3 and 4. A mixed meal tolerance test (MMTT) and prospective meal consumption (ad libitum meal) was administered on Day 4. Appetite and food intake were assessed using a VAS questionnaire (appetite, hunger and satiety) on Days 1, 2, 3 and 4.

Series [3] deals with participants with obesity and participants with T2DM. As to the kind of experiment: CT-868-003 crossover study: safety. It counts as in vivo, human. The settings on record: for Infections and infestations / Urinary tract infection: Table 24. The text has this: Safety assessments of this study included treatment-emergent adverse events (TEAEs), serious adverse events (SAEs), adverse events of special interest (AESI), vital signs, 12-lead electrocardiogram (ECG), clinical lab evaluations, and physical exam.
Safety assessments which occurred throughout the entire study, included monitoring of incidence and severity of AEs, treatment-emergent AEs (TEAEs) and AEs of special interest (AESIs) (e.g., GI events, hypoglycemia), clinical laboratory abnormalities (ECGs, chemistry, hematology, and urinalysis), and changes in vital sign measurements (BP, heart rate, respiratory rate, and aural temperature).
AE terms recorded by the Investigator were coded to system organ class (SOC) and preferred term (PT) using the Medical Dictionary for Regulatory Activities (MedDRA) version 24.0. Severity was collected using the Common Terminology Criteria for AEs (CTCAE) version 5.0 Toxicity Grade. Events with missing severity were summarized as Grade 3. TEAEs summarized by severity counted each participant once for the maximum severity within each SOC and PT within each in-house treatment period and overall. TEAEs marked with a relationship to study treatment as definitely, probable, possible, or missing were considered as related TEAEs. Events with missing relationship to study treatment were summarized as related. The number and percentage of participants with TEAEs were summarized by MedDRA-coded SOCs and PTs.

Series [4] in a line: in vivo. As to conditions: male, CD-1, mouse, sc.
Method: Blood was kept on ice until centrifuged at 4600 rpm for five minutes at 4° C. Plasma was stored at −80° C. until analysis. Compounds were extracted from plasma and quantified against a standard curve using an AB Sciex 7500+LC-MS/MS system (FIG. 5).
The next series concerns the target human GLP-1R (Homo sapiens, UniProt P43220). In words: β-arrestin-2 recruitment (NanoBiT), human GLP-1R. The settings on record: read-out: hGLP-1R β-arrestin-2 % Emax; Table 17. It counts as cell-based. The method, then:
To measure GLP-1R and GIPR-mediated β-arrestin recruitment, we utilized Promega's NanoBiT® technology or NanoLuc® Binary Technology. The NanoLuc luciferase is split into two subunits, called LgBiT and SmBIT, which are expressed in HEK293 cells as fusion proteins at the C-terminus of GLP-IR or GIPR and the N-terminus of β-arrestin-2. […] The next day, the media was removed and replaced with […] 1:100 dilution of Nano-Glo® Live Cell Substrate in Opti-MEM™ and equilibrated to room temperature for ten minutes. Background luminescence was measured before 10 nL compound was added using an ECHO Acoustic Liquid Handler.
To measure GLP-1R and GIPR-mediated β-arrestin recruitment, Promega's NanoBiT® technology or NanoLuc® Binary Technology were utilized. Both allow for the detection and quantification of protein: protein interactions in live cells (Samms et al., Trends Endocrinol Metab 31:410-21). The NanoLuc luciferase is split into two subunits, called LgBiT and SmBIT, which are expressed in HEK293 cells as fusion proteins at the C-terminus of GLP-1R or GIPR and the N-terminus of β-arrestin-2, respectively. […] Background luminescence was measured before 10 nL compound was added using an ECHO Acoustic Liquid Handler. Luminescence was measured at 1.5-minute intervals for 30 minutes.

Where [5] appears, read: Part 1 (participants with obesity).
The mark [6] stands for this setting: Part 2 (participants with T2DM).

Marks after values point to notes of the source that are not given here.

As a reminder, the Cmax is the highest concentration seen after dosing. What is called half-life is how long it takes for the measured level to halve. Read a low half-life as fast loss. A word on the AUC: it is concentration integrated over time. The low end stands for less exposure, the high end for more exposure. The term Tmax denotes the time at which the peak concentration occurs. Broadly, the AUC(0-inf) is the area under the concentration-time curve extrapolated to infinity. Read a low AUC(0-inf) as less exposure. Usually Emax stands for the size of the effect at its maximum, as opposed to the concentration needed.

human GLP-1R, sequence (P43220 24-463): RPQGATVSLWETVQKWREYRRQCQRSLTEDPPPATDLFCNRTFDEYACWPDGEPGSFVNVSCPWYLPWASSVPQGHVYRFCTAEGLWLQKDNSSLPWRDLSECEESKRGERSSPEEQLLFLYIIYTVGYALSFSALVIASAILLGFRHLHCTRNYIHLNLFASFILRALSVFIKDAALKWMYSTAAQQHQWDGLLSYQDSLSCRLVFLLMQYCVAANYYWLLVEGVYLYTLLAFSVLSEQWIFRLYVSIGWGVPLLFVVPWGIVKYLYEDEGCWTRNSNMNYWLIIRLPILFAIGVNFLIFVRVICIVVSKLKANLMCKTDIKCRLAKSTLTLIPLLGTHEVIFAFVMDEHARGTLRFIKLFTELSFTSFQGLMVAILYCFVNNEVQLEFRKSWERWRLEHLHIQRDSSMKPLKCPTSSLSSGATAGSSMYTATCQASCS

For `CCCCCCCCCCCCCCCC(=O)N[C@@H](CCC(=O)NCCCC[C@H](NC(=O)[C@H](CO)NC(=O)[C@@H]1CCCN1C(=O)[C@@H]1CCCN1C(=O)[C@@H]1CCCN1C(=O)[C@H](C)NC(=O)CNC(=O)[C@H](CO)NC(=O)[C@H](CO)NC(=O)[C@@H]1CCCN1C(=O)CNC(=O)CNC(=O)[C@H](C)NC(=O)[C@H](CC(C)C)NC(=O)[C@H](CC(C)C)NC(=O)[C@H](Cc1c[nH]c2ccccc12)NC(=O)[C@H](CC(N)=O)NC(=O)[C@@H](NC(=O)[C@H](Cc1ccccc1)NC(=O)[C@H](CCC(=O)O)NC(=O)C(C)(C)NC(=O)[C@H](C)NC(=O)[C@H](C)NC(=O)[C@H](CCC(N)=O)NC(=O)[C@H](CCCCN)NC(=O)[C@H](CC(=O)O)NC(=O)[C@H](CC(C)C)NC(=O)[C@H](Cc1ccc(O)cc1)NC(=O)[C@@H](NC(=O)[C@H](CO)NC(=O)[C@H](Cc1ccc(O)cc1)NC(=O)[C@H](CC(=O)O)NC(=O)[C@H](CO)NC(=O)[C@@H](NC(=O)[C@H](Cc1ccccc1)NC(=O)[C@@H](NC(=O)CNC(=O)[C@H](CCC(=O)O)NC(=O)CSCC(=O)NCCN1C(=O)CSC1=O)[C@@H](C)O)[C@@H](C)O)[C@@H](C)CC)C(C)C)C(N)=O)C(=O)O` [CT-859], the “glucose AUC 4 hours after administration (in words)” value in the series on C57BL/6J-DIO mice was “more efficacious than liraglutide in DIO mice”. In addition, in the series “in vivo [1]”, the Cmax stood at 324 nM and the half-life was 523 min. In addition, the “GLUC AUC during IPGTT (in words)” value in series [2] (GLP-1R knockout mice, 20 nmol/kg) is “no effect on GLUC AUC”. In series [2] (GLP-1R+/+ mice, 200 nmol/kg), this compound gave a glucose levels lowered of 75%. For the same compound, the “glucose lowering (in words)” value in series [2] (GLP-1R+/+ mice, 20 and 200 nmol/kg) is “lowered the post-prandial glucose levels equally and significantly compared to vehicle”. In series [2] (GLP-1R-/- mice, 20 nmol/kg), the “glucose lowering (in words)” value is given as “ineffective at lowering glucose levels”. Moreover, the “glucose levels lowered compared to vehicle” value in series [2] (GLP-1R-/- mice, 200 nmol/kg) is 46%.

Take `CCCCCCCCCCCCCCCC(=O)N[C@@H](CCC(=O)NCCCC[C@H](NC(=O)[C@H](CO)NC(=O)[C@@H]1CCCN1C(=O)[C@@H]1CCCN1C(=O)[C@@H]1CCCN1C(=O)[C@H](C)NC(=O)CNC(=O)[C@H](CO)NC(=O)[C@H](CO)NC(=O)[C@@H]1CCCN1C(=O)CNC(=O)CNC(=O)[C@H](C)NC(=O)[C@H](CC(C)C)NC(=O)[C@H](CC(C)C)NC(=O)[C@H](Cc1c[nH]c2ccccc12)NC(=O)[C@H](CC(N)=O)NC(=O)[C@@H](NC(=O)[C@H](Cc1ccccc1)NC(=O)[C@H](CCC(=O)O)NC(=O)C(C)(C)NC(=O)[C@H](C)NC(=O)[C@H](C)NC(=O)[C@H](CCC(N)=O)NC(=O)[C@H](CCCCN)NC(=O)[C@H](CC(=O)O)NC(=O)[C@H](CC(C)C)NC(=O)[C@H](Cc1ccc(O)cc1)NC(=O)[C@@H](NC(=O)[C@H](CO)NC(=O)[C@H](Cc1ccc(O)cc1)NC(=O)[C@H](CC(=O)O)NC(=O)[C@H](CO)NC(=O)[C@@H](NC(=O)[C@H](Cc1ccccc1)NC(=O)[C@@H](NC(=O)CNC(=O)[C@H](CCC(=O)O)NC(=O)CSCC(=O)NCCN1CCCCC1=O)[C@@H](C)O)[C@@H](C)O)[C@@H](C)CC)C(C)C)C(N)=O)C(=O)O` [CT-868]: in the series “clinical” (human), the “incremental AUC” value is recorded as 128,267 ng/ml*min and the “terminal half-life (t1/2)” value is listed as 1,190 minutes. In “clinical” (human, AUC), the exposure (AUC) is 3490 ng·h/mL. The compound further had an area under the curve (AUC) in “clinical” (human, AUC (0-tau)) of 3860 ng·h/mL. In the series “clinical” (human, Cmax), this compound came in with a peak concentration (Cmax) of 247 ng/mL. Besides, the Cmax in the series “clinical” (human, Maximum Concentration of CT-868 (Cmax)) amounted to 274 ng/mL. For the same compound, in “clinical” (human, Time of Maximum Concentration of CT-868 (Tmax)), the Tmax was 10.9 h. Also, the Tmax in the series “clinical” (human, Tmax) was 12.2 h. Also, the AUC in “clinical” (human, incremental AUC) was 2260 ng·h/mL. In “clinical” (human, terminal half-life), this compound showed a half-life of roughly 1200 min. Moreover, the half-life in the series “clinical” (human, terminal half-life (t1/2)) is 1190 min. The “time at which maximum plasma concentrations were attained post-dose” value in “clinical” is 11 to 12 h. In series [3] (setting [5]), the Infections and infestations is 0 n (%); the Urinary tract infection is on record as 0 n (%). For the same compound, in series [3] (setting [6]), the Infections and infestations was 0 n (%); the Urinary tract infection is 0 n (%). For the same compound, in series [3] (in vivo), the “AEs of Special Interest (AESI) Total” value is 10 (50.0) n (%); the “Any AESIs, Grade 2” value is reported as 1 (8.3%) n (%); the Arthralgia was 0 n (%); the “At Least 1 Study Drug Related TEAE” value is listed as 9 (45.0) n (%). Moreover, in series [3] (in vivo), the “At Least 1 TEAE” value is given as 14 (70.0) n (%), the Back pain is 0 n (%), the Coagulation test abnormal is 0 n (%) and the Dermatitis was 0 n (%). In series [3] (in vivo), the “GI side effects (in words)” value is “mostly mild and transient”; the Hypoglycemia is reported as 7 (35.0) n (%); the “Injection Site Reaction” value is 1 (5.0) n (%); the Investigations was 0 n (%). Further, in series [3] (in vivo), the “Musculoskeletal and connective tissue disorders” value is 0 n (%); the SAEs was 0 n (%); the “Treatment Discontinuation” value is recorded as 1 (5.0)* n (%); the “participants with Grade 1 hypoglycemia events” value is listed as 7 participants. In series [3] (in vivo), the “tolerability (in words)” value was “well tolerated” and the “vital signs, ECG parameters, laboratory values (in words)” value was “no clinically significant CT-868-related changes”. In “in vivo [4]”, this compound showed an area under the curve AUC(0-inf) of 7.92 µM·h and a half-life of 420 min. On human GLP-1R, the Emax was 1.5%.

Values taken from US20240366728A1, “Treatment of Diabetes Mellitus” (Carmot Therapeutics Inc., priority 2023, published 2024).
